Assay results as given in ChEMBL document CHEMBL3244333, “2-Acetylpyridine thiosemicarbazones. 2. N4,N4-Disubstituted derivatives as potential antimalarial agents” (J Med Chem, 1979).
Calls of active or inactive are those of the source. No cut-off for these calls is given here.

Experiments:
[1] = test system: Mus musculus; experiment: Toxicity in Plasmodium berghei KBG 173 infected mouse at 640 mg/kg; type: organism-based; design: dose 640 mg/kg; conditions: in vivo
[2] = test system: Mus musculus; experiment: Toxicity in Plasmodium berghei KBG 173 infected mouse at 320 mg/kg; type: organism-based; design: dose 320 mg/kg; conditions: in vivo
[3] = test system: Plasmodium berghei; experiment: Antimalarial activity against Plasmodium berghei KBG 173 infected in mouse assessed as cured animal from parasite infection at 320 mg/kg; type: functional, organism-based; design: dose 320 mg/kg
[4] = test system: Plasmodium berghei; experiment: Antimalarial activity against Plasmodium berghei KBG 173 infected in mouse assessed as increase of mean survival time at 80 mg/kg; type: functional
[5] = test system: Plasmodium berghei; experiment: Antimalarial activity against Plasmodium berghei KBG 173 infected in mouse assessed as cured animal from parasite infection at 640 mg/kg; type: functional, organism-based; design: dose 640 mg/kg
[6] = test system: Plasmodium berghei; experiment: Antimalarial activity against Plasmodium berghei KBG 173 infected in mouse assessed as cured animal from parasite infection at 160 mg/kg; type: functional, organism-based; design: dose 160 mg/kg
[7] = test system: Plasmodium berghei; experiment: Antimalarial activity against Plasmodium berghei KBG 173 infected in mouse assessed as increase of mean survival time at 40 mg/kg; type: functional
[8] = test system: Plasmodium berghei; experiment: Antimalarial activity against Plasmodium berghei KBG 173 infected in mouse assessed as cured animal from parasite infection at 80 mg/kg; type: functional, organism-based; design: dose 80 mg/kg
[9] = test system: Plasmodium berghei; experiment: Antimalarial activity against Plasmodium berghei KBG 173 infected in mouse assessed as increase of mean survival time at 640 mg/kg; type: functional
[10] = test system: Plasmodium berghei; experiment: Antimalarial activity against Plasmodium berghei KBG 173 infected in mouse assessed as increase of mean survival time at 160 mg/kg; type: functional
[11] = test system: Plasmodium berghei; experiment: Antimalarial activity against Plasmodium berghei KBG 173 infected in mouse assessed as increase of mean survival time at 320 mg/kg; type: functional
[12] = test system: Mus musculus; experiment: Toxicity in Plasmodium berghei KBG 173 infected mouse at 160 mg/kg; type: organism-based; design: dose 160 mg/kg; conditions: in vivo
[13] = test system: Plasmodium berghei; experiment: Antimalarial activity against Plasmodium berghei KBG 173 infected in mouse assessed as cured animal from parasite infection at 40 mg/kg; type: functional, organism-based; design: dose 40 mg/kg

SMILES	Activity [1]	Activity [2]	Activity [3]	Survival [4] [days]	Activity [5]	Activity [6]	Survival [7] [days]	Activity [8]	Survival [9] [days]	Survival [10] [days]	Survival [11] [days]	Activity [12]	Activity [13]
C/C(=N/NC(=S)N1CCN(c2cccc(C(F)(F)F)c2)CC1)c1ccccn1	Toxic	Toxic	Active	2.4	Active	Active	0.1	–	–	–	–	–	–
C/C(=N/NC(=S)N(C)C1CCCCCCC1)c1ccccn1	Toxic	–	Active	9.6	Active	Active	3.2	Active	12.1	–	–	–	–
C/C(=N/NC(=S)N1CCN(Cc2ccccc2)CC1)c1ccccn1	–	–	Active	4.4	Active	–	1.6	–	–	5.6	–	–	–
CCCCN(C)C(=S)N/N=C(/C)c1ccccn1	Toxic	Toxic	Active	8.1	Active	Active	5.9	Active	0	6.9	0	Toxic	–
C/C(=N/NC(=S)N1CCC(Cc2ccccc2)CC1)c1ccccn1	–	–	Active	2.8	Active	Active	0.4	–	–	–	–	–	–
C/C(=N/NC(=S)N1CC2CCC(CC2)C1)c1ccccn1	Toxic	–	–	–	–	Active	–	Active	0.4	–	0.2	–	Active
C/C(=N/NC(=S)N1C(C)CCCC1C)c1ccccn1 (stereo not given)	Toxic	–	Active	1.6	Active	–	0.5	–	–	6.3	–	–	–
C/C(=N/NC(=S)N1CCN(c2ccccc2)CC1)c1ccccn1	Toxic	Toxic	–	11.7	Active	Active	7	Active	-0.4	–	-0.1	–	Active
C/C(=N/NC(=S)N1C(C)CCC1C)c1ccccn1 (stereo not given)	Toxic	Toxic	Active	–	Active	Active	4.7	Active	0	–	0	Toxic	–
C/C(=N/NC(=S)N1CCN(c2ccccn2)CC1)c1ccccn1	Toxic	Toxic	–	–	–	–	–	–	0	–	0.7	–	–
C/C(=N/NC(=S)N1CC=C(c2ccccc2)CC1)c1ccccn1	–	–	Active	2	Active	Active	0.8	–	–	–	–	–	–
C/C(=N/NC(=S)N(C)C1CCCC1)c1ccccn1	Toxic	Toxic	Active	–	Active	Active	1.5	Active	0	–	6	–	–
C/C(=N/NC(=S)N1CC(C)CC(C)C1)c1ccccn1 (stereo not given)	Toxic	Toxic	Active	–	–	Active	5.6	Active	-0.4	–	0	–	–
